According to ChEMBL document CHEMBL1124153, “Synthesis and renin inhibitory activity of angiotensinogen analogues having dehydrostatine, Leu psi [CH2S]Val, or Leu psi [CH2SO]Val at the P1-P1' cleavage site” (J Med Chem, 1988):
pIC50: −log10 of the molar value.

What was measured:
[1] = molecular target: T1, Renin (Homo sapiens) (UniProt P00797); test: Inhibitory potency against renin relative to H-Pro-His-Pro-Phe-His-Phe-Phe-Val-Tyr-D-Lys-OH peptide
T1 sequence (whole entry): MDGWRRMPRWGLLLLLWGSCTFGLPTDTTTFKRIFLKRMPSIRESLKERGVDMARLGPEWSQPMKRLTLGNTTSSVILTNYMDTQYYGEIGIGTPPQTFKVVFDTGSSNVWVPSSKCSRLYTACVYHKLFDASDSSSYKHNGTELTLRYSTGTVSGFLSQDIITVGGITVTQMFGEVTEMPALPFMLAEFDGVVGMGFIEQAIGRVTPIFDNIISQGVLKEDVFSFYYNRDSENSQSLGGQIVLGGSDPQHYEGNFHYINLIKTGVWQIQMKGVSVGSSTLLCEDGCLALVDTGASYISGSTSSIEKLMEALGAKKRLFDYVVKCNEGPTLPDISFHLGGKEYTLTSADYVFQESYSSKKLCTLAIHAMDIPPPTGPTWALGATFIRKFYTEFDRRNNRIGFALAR

[2] = molecular target: T2, Renin (Homo sapiens, UniProt P00797); test: In vitro inhibitory activity against renin from lyophilized human plasma; format: cell-free
T2 sequence (P00797 whole entry): T1 sequence (whole entry)

Row | Compound | Relative potency [1] | pIC50 [2]
1 | CC(C)[C@H](NC(=O)[C@H](Cc1ccccc1)NC(=O)[C@H](Cc1ccccc1)NC(=O)[C@H](Cc1cnc[nH]1)NC(=O)[C@H](Cc1ccccc1)NC(=O)[C@H]1CCCN1C(=O)[C@H](Cc1cnc[nH]1)NC(=O)[C@H]1CCCN1)C(=O)N[C@@H](Cc1ccc(O)cc1)C(=O)N[C@H](CCCCN)C(=O)O |  | 5.00
2 | CC[C@@H](C)[C@H](NC(=O)[C@H](C(C)C)[S+]([O-])C[C@H](CC(C)C)NC(=O)[C@H](Cc1c[nH]cn1)NC(=O)[C@H](Cc1ccccc1)NC(=O)[C@H]1CCCN1C(=O)[C@H](Cc1c[nH]cn1)NC(=O)[C@H]1CCCN1)C(=O)N[C@@H](Cc1c[nH]cn1)C(=O)N[C@H](CCCCN)C(=O)O (some centres not stated) | 4 | 5.60
3 | CC[C@@H](C)[C@H](NC(=O)/C=C/[C@H](CC(C)C)NC(=O)[C@H](Cc1cnc[nH]1)NC(=O)[C@H](Cc1ccccc1)NC(=O)[C@H]1CCCN1C(=O)[C@H](Cc1cnc[nH]1)NC(=O)[C@H]1CCCN1)C(=O)N[C@@H](Cc1cnc[nH]1)C(=O)N[C@H](CCCCN)C(=O)O |  | 5.21
4 | CC[C@@H](C)[C@H](NC(=O)[C@@H](NC[C@H](CC(C)C)NC(=O)[C@H](Cc1c[nH]cn1)NC(=O)[C@H](Cc1ccccc1)NC(=O)[C@H]1CCCN1C(=O)[C@H](Cc1c[nH]cn1)NC(=O)[C@H]1CCCN1)C(C)C)C(=O)N[C@@H](Cc1c[nH]cn1)C(=O)N[C@H](CCCCN)C(=O)O | 200 | 7.31

Results, then the compound that gave them:

Row | Relative potency [1] | pIC50 [2] | Compound
5 | 1 |  | CC(C)[C@H](NC(=O)[C@H](Cc1ccccc1)NC(=O)[C@H](Cc1ccccc1)NC(=O)[C@H](Cc1c[nH]cn1)NC(=O)[C@H](Cc1ccccc1)NC(=O)[C@H]1CCCN1C(=O)[C@H](Cc1c[nH]cn1)NC(=O)[C@H]1CCCN1)C(=O)N[C@@H](Cc1ccc(O)cc1)C(=O)N[C@H](CCCCN)C(=O)O
6 |  | 3.77 | CC[C@@H](C)[C@H](NC(=O)[C@H](Cc1ccccc1)NC(=O)[C@H](Cc1ccccc1)NC(=O)[C@H](Cc1cnc[nH]1)NC(=O)[C@H](Cc1ccccc1)NC(=O)[C@H]1CCCN1C(=O)[C@H](Cc1cnc[nH]1)NC(=O)[C@H]1CCCN1)C(=O)N[C@@H](Cc1cnc[nH]1)C(=O)N[C@H](CCCCN)C(=O)O
7 | 0.6 |  | CC[C@@H](C)[C@H](NC(=O)[C@H](Cc1ccccc1)NC(=O)[C@H](Cc1ccccc1)NC(=O)[C@H](Cc1c[nH]cn1)NC(=O)[C@H](Cc1ccccc1)NC(=O)[C@H]1CCCN1C(=O)[C@H](Cc1c[nH]cn1)NC(=O)[C@H]1CCCN1)C(=O)N[C@@H](Cc1c[nH]cn1)C(=O)N[C@H](CCCCN)C(=O)O
8 | 1.6 | 5.22 | CC[C@@H](C)[C@H](NC(=O)[C@@H](SC[C@H](CC(C)C)NC(=O)[C@H](Cc1c[nH]cn1)NC(=O)[C@H](Cc1ccccc1)NC(=O)[C@H]1CCCN1C(=O)[C@H](Cc1c[nH]cn1)NC(=O)[C@H]1CCCN1)C(C)C)C(=O)N[C@@H](Cc1c[nH]cn1)C(=O)N[C@H](CCCCN)C(=O)O
9 | 1.6 |  | CC[C@@H](C)[C@H](NC(=O)/C=C/[C@H](CC(C)C)NC(=O)[C@H](Cc1c[nH]cn1)NC(=O)[C@H](Cc1ccccc1)NC(=O)[C@H]1CCCN1C(=O)[C@H](Cc1c[nH]cn1)NC(=O)[C@H]1CCCN1)C(=O)N[C@@H](Cc1c[nH]cn1)C(=O)N[C@H](CCCCN)C(=O)O
